# Like-named read-outs stand apart in the source and are kept apart here.
# What was measured:
# Assay in all cases: TGFα-shedding assay-based GPCR screening with chimeric Gα subunit proteins
# Assay type in all cases: cell-based
# [1] = molecular target: T1, 348 GPCRs (Homo sapiens, UniProt P25105)
# T1 construct: expressed in transfected cells; host or cells: HEK293A
# [2] = molecular target: 348 GPCRs (Homo sapiens, UniProt P28221); conditions: 10µM, Favipiravir 100μM
# [3] = molecular target: T2, 348 GPCRs (Homo sapiens, UniProt P30542); conditions: 10µM, Favipiravir 100μM
# T2 sequence (P30542 1-326): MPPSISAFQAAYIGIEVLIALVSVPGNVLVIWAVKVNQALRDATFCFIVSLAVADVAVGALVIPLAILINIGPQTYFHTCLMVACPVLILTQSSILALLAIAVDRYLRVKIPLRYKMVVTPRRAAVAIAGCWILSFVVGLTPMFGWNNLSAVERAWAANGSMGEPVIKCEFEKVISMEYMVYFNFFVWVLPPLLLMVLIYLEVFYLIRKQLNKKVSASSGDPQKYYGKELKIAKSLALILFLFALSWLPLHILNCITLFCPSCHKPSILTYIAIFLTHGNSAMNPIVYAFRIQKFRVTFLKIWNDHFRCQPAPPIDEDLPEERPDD
# [4] = molecular target: T3, 348 GPCRs (Homo sapiens, UniProt P37288)
# T3 construct: expressed in transfected cells; host or cells: HEK293A
# [5] = molecular target: 348 GPCRs (Homo sapiens, UniProt P41143); conditions: read-out: % GPCR activation compared to TPA, OPRD1 (opioid receptor, delta 1 (DOR)); 10µM, Favipiravir 100μM
# [6] = molecular target: T4, 348 GPCRs (Homo sapiens, UniProt P47871); conditions: 10µM, Favipiravir 100μM
# T4 construct: expressed in transfected cells; host or cells: HEK293A
# [7] = molecular target: T5, 348 GPCRs (Homo sapiens, UniProt P48145); conditions: 10µM, Favipiravir 100μM
# T5 construct: expressed in transfected cells; host or cells: HEK293A
# T5 sequence (P48145 1-328): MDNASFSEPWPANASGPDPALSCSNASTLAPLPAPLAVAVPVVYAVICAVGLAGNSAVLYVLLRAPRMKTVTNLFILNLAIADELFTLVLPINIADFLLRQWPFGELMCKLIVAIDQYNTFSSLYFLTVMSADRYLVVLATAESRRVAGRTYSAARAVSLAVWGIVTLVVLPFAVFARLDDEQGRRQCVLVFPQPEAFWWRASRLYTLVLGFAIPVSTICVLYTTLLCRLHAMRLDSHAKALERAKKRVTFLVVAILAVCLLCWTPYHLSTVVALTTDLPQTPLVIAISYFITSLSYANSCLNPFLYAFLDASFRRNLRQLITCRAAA
# [8] = molecular target: T6, 348 GPCRs (Homo sapiens, UniProt Q8TCW9)
# T6 construct: expressed in transfected cells; host or cells: HEK293A
# [9] = molecular target: T7, 348 GPCRs (Homo sapiens, UniProt Q969F8); conditions: 10µM, Favipiravir 100μM
# T7 construct: expressed in transfected cells; host or cells: HEK293A
# [10] = molecular target: T8, 348 GPCRs (Homo sapiens, UniProt Q9H1C0); conditions: 10µM, Favipiravir 100μM
# T8 construct: expressed in transfected cells; host or cells: HEK293A
# [11] = molecular target: T9, 348 GPCRs (Homo sapiens, UniProt Q9NYV9); conditions: 10µM, Favipiravir 100μM
# T9 construct: expressed in transfected cells; host or cells: HEK293A
# T9 sequence (Q9NYV9 1-303): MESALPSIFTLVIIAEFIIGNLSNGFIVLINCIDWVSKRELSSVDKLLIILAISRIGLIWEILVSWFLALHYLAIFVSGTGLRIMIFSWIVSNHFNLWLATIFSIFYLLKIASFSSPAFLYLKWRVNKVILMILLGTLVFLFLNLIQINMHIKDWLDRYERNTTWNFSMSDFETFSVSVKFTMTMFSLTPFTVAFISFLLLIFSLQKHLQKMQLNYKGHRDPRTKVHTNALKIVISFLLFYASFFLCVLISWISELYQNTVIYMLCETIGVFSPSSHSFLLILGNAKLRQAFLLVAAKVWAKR
# [12] = molecular target: T10, 348 GPCRs (Homo sapiens, UniProt Q9NYW3); conditions: 10µM, Favipiravir 100μM
# T10 construct: expressed in transfected cells; host or cells: HEK293A
# T10 sequence (Q9NYW3 1-318): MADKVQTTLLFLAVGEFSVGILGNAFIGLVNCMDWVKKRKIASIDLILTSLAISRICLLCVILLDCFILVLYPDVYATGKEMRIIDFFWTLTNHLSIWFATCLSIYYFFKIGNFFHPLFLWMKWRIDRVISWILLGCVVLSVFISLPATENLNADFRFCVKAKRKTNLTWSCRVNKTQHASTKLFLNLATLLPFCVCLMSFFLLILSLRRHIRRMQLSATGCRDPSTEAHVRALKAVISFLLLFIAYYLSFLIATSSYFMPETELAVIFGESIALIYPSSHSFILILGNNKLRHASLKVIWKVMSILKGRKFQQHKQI
# [13] = GPCR PAFR (platelet activating factor receptor), read-out: % GPCR activation compared to TPA
# [14] = 5-HT1D (5-hydroxytryptamine receptor 1D), read-out: % GPCR activation compared to TPA
# [15] = ADORA1 (adenosine A1 receptor), read-out: % GPCR activation compared to TPA
# [16] = GPCR V1A (arginine vasopressin receptor 1A), read-out: % GPCR activation compared to TPA
# [17] = GCGR (glucagon receptor), read-out: % GPCR activation compared to TPA
# [18] = NPBWR1 (neuropeptides B and W receptor 1), read-out: % GPCR activation compared to TPA
# [19] = GPCR PK1 (prokineticin receptor 1), read-out: % GPCR activation compared to TPA
# [20] = KISSPEPTIN-R (KISS1 Receptor), read-out: % GPCR activation compared to TPA
# [21] = LPAR5 (lysophosphatidic acid receptor 5), read-out: % GPCR activation compared to TPA
# [22] = TAS2R13 (taste receptor, type 2, member 13), read-out: % GPCR activation compared to TPA
# [23] = TAS2R7 (taste receptor, type 2, member 7), read-out: % GPCR activation compared to TPA
# [24] = read-out: % GPCR activation compared to TPA, GPCR PAFR (platelet activating factor receptor)
# [25] = read-out: % GPCR activation compared to TPA, 5-HT1D (5-hydroxytryptamine receptor 1D)
# [26] = read-out: % GPCR activation compared to TPA, ADORA1 (adenosine A1 receptor)
# [27] = read-out: % GPCR activation compared to TPA, GPCR V1A (arginine vasopressin receptor 1A)
# [28] = read-out: % GPCR activation compared to TPA, GCGR (glucagon receptor)
# [29] = read-out: % GPCR activation compared to TPA, NPBWR1 (neuropeptides B and W receptor 1)
# [30] = read-out: % GPCR activation compared to TPA, GPCR PK1 (prokineticin receptor 1)
# [31] = read-out: % GPCR activation compared to TPA, KISSPEPTIN-R (KISS1 Receptor)
# [32] = read-out: % GPCR activation compared to TPA, LPAR5 (lysophosphatidic acid receptor 5)
# [33] = read-out: % GPCR activation compared to TPA, TAS2R13 (taste receptor, type 2, member 13)
# [34] = read-out: % GPCR activation compared to TPA, TAS2R7 (taste receptor, type 2, member 7)
# Chain of 348 GPCRs (Homo sapiens, UniProt P41143) (P41143 whole entry): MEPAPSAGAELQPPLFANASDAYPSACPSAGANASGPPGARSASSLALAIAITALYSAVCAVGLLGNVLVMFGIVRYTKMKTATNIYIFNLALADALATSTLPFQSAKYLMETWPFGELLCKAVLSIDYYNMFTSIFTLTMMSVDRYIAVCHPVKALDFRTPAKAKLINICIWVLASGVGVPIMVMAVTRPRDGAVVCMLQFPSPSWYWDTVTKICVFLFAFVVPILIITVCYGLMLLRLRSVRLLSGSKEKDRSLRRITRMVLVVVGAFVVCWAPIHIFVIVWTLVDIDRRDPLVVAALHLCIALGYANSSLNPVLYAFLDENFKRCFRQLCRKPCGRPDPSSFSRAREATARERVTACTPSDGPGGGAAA
# Chain of 348 GPCRs (Homo sapiens, UniProt P28221) (P28221 whole entry): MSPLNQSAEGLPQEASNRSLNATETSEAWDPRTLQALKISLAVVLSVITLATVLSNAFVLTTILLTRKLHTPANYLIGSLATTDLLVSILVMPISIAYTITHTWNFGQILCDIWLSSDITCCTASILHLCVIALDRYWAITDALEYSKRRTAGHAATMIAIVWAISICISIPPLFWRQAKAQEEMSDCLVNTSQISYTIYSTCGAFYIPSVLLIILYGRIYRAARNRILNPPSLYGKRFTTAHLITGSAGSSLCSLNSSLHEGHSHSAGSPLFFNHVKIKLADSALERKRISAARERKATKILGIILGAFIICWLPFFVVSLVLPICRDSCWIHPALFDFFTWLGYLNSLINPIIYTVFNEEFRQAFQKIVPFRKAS
# T8 sequence (Q9H1C0 whole entry): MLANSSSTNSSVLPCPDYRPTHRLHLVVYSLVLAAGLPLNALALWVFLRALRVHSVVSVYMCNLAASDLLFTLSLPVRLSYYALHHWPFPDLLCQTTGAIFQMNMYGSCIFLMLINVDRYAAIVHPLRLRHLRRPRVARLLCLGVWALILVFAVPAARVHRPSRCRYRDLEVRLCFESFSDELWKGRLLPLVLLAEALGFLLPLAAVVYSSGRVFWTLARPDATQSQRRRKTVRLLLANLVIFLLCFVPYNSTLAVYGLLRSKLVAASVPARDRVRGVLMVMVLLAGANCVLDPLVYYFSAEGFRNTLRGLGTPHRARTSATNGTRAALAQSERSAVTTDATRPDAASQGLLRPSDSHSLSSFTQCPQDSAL
# T6 sequence (Q8TCW9 whole entry): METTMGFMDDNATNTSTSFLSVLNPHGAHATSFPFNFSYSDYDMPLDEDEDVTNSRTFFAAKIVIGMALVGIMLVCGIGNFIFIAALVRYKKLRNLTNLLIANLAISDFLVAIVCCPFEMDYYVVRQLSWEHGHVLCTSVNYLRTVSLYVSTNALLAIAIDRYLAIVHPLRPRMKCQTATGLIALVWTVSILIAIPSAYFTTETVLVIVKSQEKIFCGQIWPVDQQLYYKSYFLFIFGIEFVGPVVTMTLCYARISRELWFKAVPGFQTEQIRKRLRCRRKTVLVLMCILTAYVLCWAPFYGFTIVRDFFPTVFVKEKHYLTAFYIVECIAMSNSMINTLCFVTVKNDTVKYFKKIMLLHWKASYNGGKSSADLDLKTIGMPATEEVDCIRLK
# T1 sequence (P25105 whole entry): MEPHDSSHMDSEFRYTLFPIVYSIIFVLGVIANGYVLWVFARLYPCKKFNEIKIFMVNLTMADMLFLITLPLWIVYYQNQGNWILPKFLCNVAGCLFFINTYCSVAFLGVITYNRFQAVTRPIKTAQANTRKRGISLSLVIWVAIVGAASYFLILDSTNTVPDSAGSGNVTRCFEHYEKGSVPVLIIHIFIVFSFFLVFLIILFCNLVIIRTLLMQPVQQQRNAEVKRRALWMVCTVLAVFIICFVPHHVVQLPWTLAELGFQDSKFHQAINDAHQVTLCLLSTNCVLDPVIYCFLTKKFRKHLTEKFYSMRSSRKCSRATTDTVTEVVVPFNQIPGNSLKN
# T3 sequence (P37288 whole entry): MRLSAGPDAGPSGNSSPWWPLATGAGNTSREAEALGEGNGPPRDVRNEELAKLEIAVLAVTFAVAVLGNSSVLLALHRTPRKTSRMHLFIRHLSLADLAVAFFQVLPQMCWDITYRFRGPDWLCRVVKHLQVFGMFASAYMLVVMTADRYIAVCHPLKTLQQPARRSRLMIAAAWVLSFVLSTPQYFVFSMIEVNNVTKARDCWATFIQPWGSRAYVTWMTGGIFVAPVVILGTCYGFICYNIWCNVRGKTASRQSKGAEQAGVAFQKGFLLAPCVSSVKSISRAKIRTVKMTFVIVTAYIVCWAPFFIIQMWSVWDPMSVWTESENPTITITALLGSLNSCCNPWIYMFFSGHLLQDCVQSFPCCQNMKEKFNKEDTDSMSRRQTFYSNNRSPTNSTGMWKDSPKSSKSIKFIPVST
# T7 sequence (Q969F8 whole entry): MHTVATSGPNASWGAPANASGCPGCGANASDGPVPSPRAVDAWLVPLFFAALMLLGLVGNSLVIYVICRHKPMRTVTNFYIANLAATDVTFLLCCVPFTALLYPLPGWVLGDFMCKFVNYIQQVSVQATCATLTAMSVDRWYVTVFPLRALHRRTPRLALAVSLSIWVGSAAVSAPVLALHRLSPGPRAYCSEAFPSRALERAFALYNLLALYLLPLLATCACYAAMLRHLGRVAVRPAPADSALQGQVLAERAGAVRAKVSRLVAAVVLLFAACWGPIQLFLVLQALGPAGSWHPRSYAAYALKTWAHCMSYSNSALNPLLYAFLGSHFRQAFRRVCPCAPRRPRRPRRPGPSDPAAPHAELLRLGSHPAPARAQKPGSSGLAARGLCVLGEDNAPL
# T4 sequence (P47871 26-477): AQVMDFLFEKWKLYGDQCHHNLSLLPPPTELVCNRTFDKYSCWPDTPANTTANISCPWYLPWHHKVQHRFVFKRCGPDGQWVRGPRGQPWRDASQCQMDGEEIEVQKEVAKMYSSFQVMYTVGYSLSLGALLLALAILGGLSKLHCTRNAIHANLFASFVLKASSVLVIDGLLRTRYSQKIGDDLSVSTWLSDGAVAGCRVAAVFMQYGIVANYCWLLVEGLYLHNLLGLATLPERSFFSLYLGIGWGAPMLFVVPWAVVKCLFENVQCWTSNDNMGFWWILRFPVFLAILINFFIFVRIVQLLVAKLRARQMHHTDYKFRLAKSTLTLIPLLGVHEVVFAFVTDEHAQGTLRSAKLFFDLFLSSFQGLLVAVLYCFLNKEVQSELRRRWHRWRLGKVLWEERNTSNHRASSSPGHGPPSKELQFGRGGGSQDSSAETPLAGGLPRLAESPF
Compound,"activation at 10 µM [1, 13]","activation at 100 µM [2, 14]","activation at 100 µM [3, 15]","activation at 10 µM [4, 16]",activation at 100 µM [5],"activation at 100 µM [6, 17]","activation at 10 µM [7, 18]","activation at 10 µM [8, 19]","activation at 100 µM [9, 20]","activation at 10 µM [10, 21]","activation at 100 µM [11, 22]","activation at 10 µM [12, 23]","activation at 10 µM [1, 24]","activation at 100 µM [2, 25]","activation at 100 µM [3, 26]","activation at 10 µM [4, 27]","activation at 100 µM [6, 28]","activation at 10 µM [7, 29]","activation at 10 µM [8, 30]","activation at 100 µM [9, 31]",also measured
N#C[C@@]1(c2ccc3c(N)ncnn23)O[C@H](CO)[C@@H](O)[C@H]1O [GS441524],-1.62%,-9.87%,0.705%,-0.48%,-2.68%,0.277%,-1.75%,-2.68%,-2.31%,2.96%,0.783%,-0.22%,–,–,–,–,–,–,–,–,–
CC(C)OC(=O)[C@H](C)N[P@](=O)(OC[C@H]1O[C@@H](n2ccc(=O)[nH]c2=O)[C@](C)(F)[C@@H]1O)Oc1ccccc1 [sofosbuvir],–,–,–,–,-2.64%,–,–,–,–,–,–,–,-7.19%,0.836%,1.9%,-0.512%,-0.806%,-6.08%,-1.13%,-1.38%,"activation at 10 µM [10, 32]: 1.1%; activation at 100 µM [11, 33]: -2.09%; activation at 10 µM [12, 34]: 0.253%"
CCC(CC)COC(=O)[C@H](C)N[P@](=O)(OC[C@H]1O[C@@](C#N)(c2ccc3c(N)ncnn23)[C@H](O)[C@@H]1O)Oc1ccccc1 [remdesivir],–,–,–,–,-3.05%,–,–,–,–,–,–,–,6.57%,-5.77%,3.8%,0.24%,2.91%,-1.26%,-3.33%,-1.75%,"activation at 10 µM [10, 32]: 2.15%; activation at 100 µM [11, 33]: 1.1%; activation at 10 µM [12, 34]: 0.159%"
CC(C)C(=O)OC[C@H]1O[C@@H](n2ccc(NO)nc2=O)[C@H](O)[C@@H]1O [molnupiravir],-6.72%,0.705%,-3.9%,0.0613%,-1.93%,0.495%,-7.02%,-3.53%,-4.04%,-2.73%,-0.971%,-0.399%,–,–,–,–,–,–,–,–,–
"NC(=O)c1nc(F)cnc1O [favipiravir, 6-fluoro-3-hydroxy-2-pyrazinecarboxamide]",–,-9.38%,-0.249%,–,-3.28%,2.23%,-3.5%,–,-3.52%,-1.99%,-1.06%,-0.16%,–,–,–,–,–,–,–,–,"activation at 100 µM ([1]; GPCR PAFR (platelet activating factor receptor), 100μM, read-out: % GPCR activation compared to TPA): -0.53%; activation at 100 µM ([4]; GPCR V1A (arginine vasopressin receptor 1A), 100μM, read-out: % GPCR activation compared to TPA): 0.923%; activation at 100 µM ([8]; GPCR PK1 (prokineticin receptor 1), 100μM, read-out: % GPCR activation compared to TPA): -2.82%"
